# Reference: BindingDB's records for doi:10.1021/jm00020a026 (University of Michigan, 1995)
# Experiment: antiviral activity in Human immunodeficiency virus-1 as reverse transcriptase activity in culture supernatant
row,SMILES,IC50
1,N#Cc1cn([C@@H]2O[C@H](CO)[C@@H](O)[C@@H]2F)c2ncnc(N)c12,12000 nM
2,N#Cc1cn([C@H]2O[C@H](CO)[C@@H](O)[C@@H]2F)c2ncnc(N)c12,> 100000 nM
3,N#Cc1c(Br)n([C@H]2O[C@H](CO)[C@@H](O)[C@@H]2F)c2ncnc(N)c12,32000 nM
4,"Cc1cn([C@H]2C[C@H](N=[N+]=[N-])[C@@H](CO)O2)c(=O)[nH]c1=O [1-((2R,4S,5S)-4-Azido-5-hydroxymethyl-tetrahydro-furan-2-yl)-5-methyl-1H-pyrimidine-2,4-dione]",11 nM
5,"NC(=S)c1cn(C2OC(CO)C(O)C2F)c2ncnc(N)c12 (stereo unspecified) [4-Amino-7-(3-fluoro-4-hydroxy-5-hydroxymethyl-tetrahydro-furan-2-yl)-7H-pyrrolo[2,3-d]pyrimidine-5-carbothioic acid amide]",70 nM
6,"NC(=O)c1cn(C2OC(CO)C(O)C2F)c2ncnc(N)c12 (stereo unspecified) [4-Amino-7-(3-fluoro-4-hydroxy-5-hydroxymethyl-tetrahydro-furan-2-yl)-7H-pyrrolo[2,3-d]pyrimidine-5-carboxylic acid amide]",20 nM
